Assays:
furin = target: T1, furin (Homo sapiens, UniProt P09958); experiment: SPR (Biacore X100, furin amine-coupled on CM5, steady-state affinity); also inhibits recombinant furin in a fluorimetric assay; format: binding
T1 construct: commercial recombinant Human Furin

SF-268 = experiment: cells; design: glioma cell line sensitivity to 2OHOA, half maximal inhibitory concentration; details: Homo sapiens, SF-268
SF-295 = experiment: cells; design: glioma cell line sensitivity to 2OHOA, half maximal inhibitory concentration; details: Homo sapiens, SF-295
U-118 MG = experiment: cells; design: glioma cell line sensitivity to 2OHOA, half maximal inhibitory concentration; details: Homo sapiens, U-118-MG
U-251 MG = experiment: cells; design: glioma cell line sensitivity to 2OHOA, half maximal inhibitory concentration; details: Homo sapiens, U-251
U-87 MG = experiment: cells; design: glioma cell line sensitivity to 2OHOA, half maximal inhibitory concentration; details: Homo sapiens, U-87 MG

T1 sequence (P09958 108-794): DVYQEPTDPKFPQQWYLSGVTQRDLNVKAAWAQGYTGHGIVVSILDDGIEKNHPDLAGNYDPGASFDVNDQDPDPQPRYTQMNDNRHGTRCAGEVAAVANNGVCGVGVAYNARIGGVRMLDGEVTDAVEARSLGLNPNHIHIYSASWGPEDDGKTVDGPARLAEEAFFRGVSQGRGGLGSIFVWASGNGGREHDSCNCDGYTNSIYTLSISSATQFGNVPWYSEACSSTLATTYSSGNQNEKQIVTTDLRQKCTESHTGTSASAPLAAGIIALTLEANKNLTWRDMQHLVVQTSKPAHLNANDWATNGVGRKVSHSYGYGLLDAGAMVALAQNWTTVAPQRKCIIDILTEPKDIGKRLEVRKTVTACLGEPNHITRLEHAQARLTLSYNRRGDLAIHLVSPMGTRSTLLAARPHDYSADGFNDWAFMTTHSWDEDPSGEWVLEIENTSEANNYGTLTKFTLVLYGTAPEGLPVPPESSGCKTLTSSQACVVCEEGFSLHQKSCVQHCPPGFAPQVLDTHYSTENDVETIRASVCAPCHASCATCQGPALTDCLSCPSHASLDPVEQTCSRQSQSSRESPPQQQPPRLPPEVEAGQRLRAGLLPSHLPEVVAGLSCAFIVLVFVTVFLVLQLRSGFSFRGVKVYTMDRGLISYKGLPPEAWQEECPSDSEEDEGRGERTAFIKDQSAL

CCCCCCCC/C=C\CCCCCCC(O)C(=O)O (stereo not drawn) [2OHOA, 2-hydroxy-9-cis-ocadecenoic acid]
Kd (furin): 19.5 µM
IC50 (SF-268): 240 µM
IC50 (SF-295): 300 µM
IC50 (U-118 MG): 180 µM
IC50 (U-251 MG): 427 µM
IC50 (U-87 MG): 172 µM
